These are literature values, as cited in US20230381197A1, “COMPOSITIONS FOR NON-SURGICAL PREVENTION OF BOAR TAINT AND […]” (Insigna Inc., priority 2022, published 2023).

The test system of the series is Sertoli cells. Particulars: young male pigs.

SMILES strings stand for the structures.

As for `C[C@]12CC[C@@H]3c4ccc(O)cc4C[C@@H](CCCCCCCCC[S+]([O-])CCCC(F)(F)C(F)(F)F)[C@H]3[C@@H]1CC[C@@H]2O` (some centres unmarked) [ICI 182,780], the “duration of Sertoli cell proliferation and testis size” value is listed as “highly significant increase”.
Consider `N#Cc1ccc(C(c2ccc(C#N)cc2)n2cncn2)cc1` [Letrozole], for which the “duration of Sertoli cell proliferation and testis size” value was “highly significant increase”.
